Experimental data reported in patent US20250152651A1, “COMPOSITIONS AND METHODS FOR EXTRACTING COMPOUNDS” (Unicity Properties, Inc., priority 2023, published 2025).
Where “and” joins values, the source holds several entries; their conditions need not be identical. Identical values can stand only once.

Biological target: α-glucosidase
Test: α-glucosidase inhibitory activity assay
Assay type: biochemical
Details: alpha-glucosidase 1 U/ml, P-NPG substrate, 37° C., pH 6.8
Protocol: An assay to measure α-glucosidase inhibitory activity of extract and fractions was carried out according to the standard method with minor modification. In a 96-well plate, reaction mixture containing 50 μl phosphate buffer (100 mM, pH=6. 8), 10 μl alpha-glucosidase (1 U/ml), and 20 μl of varying concentrations of extract and fractions (0.1, 0.2, 0.3, 0.4, and 0.5 mg/ml) was preincubated at 37° C. for 15 min. Then, 20 μl P-NPG (5 mM) were added as a substrate and incubated further at 37° C. for 20 min. The reaction was stopped by adding 50 μl Na2 CO3 (0.1 M). The absorbance of the released p-nitrophenol was measured at 405 nm using Multiplate Reader. Acarbose at various concentrations (0.1-0.5 mg/ml) was included as a standard. Without test substance was set up in parallel as a control and each experiment was performed in triplicates. The results were expressed as percentage inhibition, which was calculated using the formula,
Inhibitory activity (%)=(1−As/Ac)×100 • where, As is the absorbance in the presence of test substance and Ac is the absorbance of control.

O=C(O[C@@H]1Cc2c(O)cc(O)cc2O[C@@H]1c1cc(O)c(O)c(O)c1)c1cc(O)c(O)c(O)c1 [EGCG, epigallocatechin gallate]
IC50 values of α-glucosidase: 138 µg/mL and 138.6 µg/mL
